The test system of data set [1] is male Wistar rats. Briefly: Subtotal nephrectomy (remnant kidney) model. The format is in vivo, rat. As to the method: In the chronic disease models of subtotal nephrectomy and inflammation, the sodium salt of BAY 85-3934 was used. For administration in drinking water, BAY 85-3934 sodium and enalapril were prepared as 100 mM sodium bicarbonate saline solutions (adjusted to pH 7) at final concentrations of 80 ppm and 30 ppm, respectively. Sham and vehicle control animals received saline only. Unless otherwise stated, chemicals and reagents were purchased from Sigma-Aldrich.
Subtotal nephrectomy was conducted in adult male Wistar rats. Body weight, blood pressure, hematocrit, and blood cell counts were determined at baseline and thereafter at weekly intervals. At baseline, rats were randomly distributed into two groups: those that underwent subtotal nephrectomy and those that underwent a sham procedure without reduction of renal mass. Surgery was performed in deeply anesthetized (2% isoflurane in air) animals. Kidneys were accessed via a dorsolateral incision of the body wall of about 2 cm in length. The right kidney was removed after ligature of the renal peduncle, and subsequently the upper and lower pole of the left kidney were removed, followed by careful hemostasis. Approximately one third of the initial kidney mass remained (removed tissue was weighed to check this was achieved). In the sham-treated animals, both kidneys were exposed before closure of the wound. Three weeks after surgery, animals were allocated to each group in equal proportions with respect to systolic blood pressure and hematocrit values. For 5 weeks, animals were treated twice weekly with rhEPO (100 IU/kg), or once daily with […] (2.5 mg/kg or 5.0 mg/kg) or vehicle. In experiments using enalapril or a combination of BAY 85-3934 sodium and enalapril, study drugs were administered with drinking water. BAY 85-3934 sodium and enalapril were administered in drinking water at concentrations of 80 ppm and 30 ppm, respectively. This was equivalent to approximately 2 mg/kg/day for enalapril and 5 mg/kg/day for BAY 85-3934. Systolic blood pressure and heart rate were determined using the tail-cuff method (a semi-automatic, non-invasive blood pressure monitor; TSE Systems), with three repeated measurements per animal.
(§1) EPO was measured in plasma samples taken from rodents using a commercial ELISA kit (R&D Systems), according to the manufacturer’s instructions. Relative plasma EPO levels were given in picograms per milliliter. In cynomolgus monkeys, EPO was measured using a combination anti-human EPO ELISAs (R&D Systems and Roche Diagnostics), with human EPO as a standard. Values were given as units per liter. For determination of plasma prorenin from rats, a commercial ELISA (Oxford Biomedical Research) was used according to the manufacturer’s instructions. Hemoglobin in rodent blood samples was determined on a Cell-Dyn 3700 apparatus (Abbott Diagnostics). BAY 85-3934 plasma concentrations were determined after protein precipitation with acetonitrile/ammonium acetate using an internal standard, followed by separation using HPLC/mass spectrometry.
As well as anemia and inflammation, CKD is often accompanied by hypertension, upon which treatment with rhEPO may have an unfavorable impact. The effects of BAY 85-3934 were compared with rhEPO in the remnant kidney (subtotal nephrectomy) model in rats.

Data set [2] relates to male Wistar rats. Briefly: Comparison of oral BAY 85-3934 with rhEPO on erythropoiesis. It is filed as in vivo, rat. The settings on record: BAY 85-3934 2.5 mg/kg once daily oral; rhEPO 25, 50, 100 IU/kg twice weekly s.c.; p<0.001 at day 30.
Protocol: Male Wistar rats (240–340 g in body weight) were housed with five animals per cage for at least 1 week before experimentation. Blood samples from rats were collected under anesthesia (2% isoflurane in air) by puncturing the retro-orbital vein plexus with a glass capillary. In a repeat-dose, 26-day experiment, animals were administered vehicle or BAY 85-3934 at doses of 0.5 mg/kg, 1.25 mg/kg, 2.5 mg/kg, and 5 mg/kg. PCV was determined at baseline and at weekly intervals after centrifugation in a hematocrit capillary tube (Brand) for 10 min at full speed in a Haemofuge centrifuge (Heraeus). The number of reticulocytes in 5 µl blood was counted after staining with thiazol orange (Becton Dickinson) according to the manufacturer’s instructions by FACS analysis on a BD FACSCalibur system (Becton Dickinson). The efficacy of BAY 85-3934 (2.5 mg/kg, once-daily, oral) was also compared with that of rhEPO (25 IU/kg, 50 IU/kg, and 100 IU/kg, twice-weekly, s.c. injection). […] The efficacy of oral treatment with BAY 85-3934 was compared with that of standard rhEPO treatment in male Wistar rats.
The next data set deals with cynomolgus monkeys. Briefly: Comparison of BAY 85-3934 with rhEPO (single dose and 14-day repeat dose). The format is in vivo, cynomolgus monkey. As to the method: Male and female cynomolgus monkeys (2.8–5.6 kg in body weight) were used, which were housed two per cage. Blood samples from conscious cynomolgus monkeys were taken by puncturing a superficial vein. In a 5-day, repeat-dose study of plasma EPO response, BAY 85-3934 was administered at doses of 0.5 mg/kg and 1.5 mg/kg at 0 h, 24 h, 48 h, 72 h, and 96 h. Blood samples were taken at 7 h, 31 h, 55 h, 79 h, 103 h, and 168 h. Erythropoietic parameters were also evaluated after a 2-week treatment period with s.c. administration of rhEPO (100 IU/kg twice weekly at days 1, 4, 8, and 11) and BAY 85-3934 (1.5 mg/kg) once daily.
as §1
In a further study, the efficacy of oral treatment with BAY 85-3934 was evaluated in comparison with rhEPO. Animals were administered a single dose of rhEPO (100 IU/kg) by s.c. injection or BAY 85-3934 (1.5 mg/kg, oral). After administration of rhEPO, plasma concentrations of rhEPO were more than 8-fold higher than the endogenous EPO levels induced by treatment with BAY 85-3934 (Fig. 3B). The area under the curve (AUC) of rhEPO was more than 6-fold higher than the AUC of endogenous EPO. […] Mean reticulocyte counts were 2-fold higher after treatment with rhEPO than after treatment with BAY 85-3934, but returned to baseline values 8 days after treatment cessation.

Where [3] appears, read: drinking water, 5 weeks: BAY 85-3934 sodium 80 ppm, enalapril 30 ppm.
[4] abbreviates: single dose rhEPO 100 IU/kg s.c. vs BAY 85-3934 1.5 mg/kg oral.

For `CCOC(=O)[C@H](CCc1ccccc1)N[C@@H](C)C(=O)N1CCC[C@H]1C(=O)O` [enalapril, reference compound], in the data set with male Wistar rats [1] (setting [3]), the “mean PCV” value is “remained unchanged”, the “mean systolic blood pressure compared with control” value was “significant reduction” and the plasma prorenin levels entry is reported as “reversion of plasma prorenin levels to normal values”.

In the case of `[Na+].[O-]c1c(-n2ccnn2)cnn1-c1cc(N2CCOCC2)ncn1` [BAY 85-3934 sodium], in the data set with male Wistar rats [1] (setting [3]), the “mean PCV” value was “increasing” and the “mean systolic blood pressure compared with control” value was “significantly reduced”.

Regarding “rhEPO: Human recombinant EPO (Ortho Biotech), s.c. injection”, the “systolic blood pressure compared with untreated controls” value in the data set on male Wistar rats [1] (5 weeks, tail-cuff) is recorded as “no difference”. In the data set with male Wistar rats [1] (BAY 85-3934 2.5 and 5 mg/kg once daily, rhEPO 100 IU/kg twice weekly), the “mean PCV” value is given as “significantly increased”. In addition, the cardiac hypertrophy entry in the data set on male Wistar rats [1] (data not shown) is “manifested”. For the same compound, the “hematocrit compared with the control group” value with male Wistar rats [2] was “significant increase”. For the same compound, in the data set on cynomolgus monkeys (14-day repeat dose), the “mean reticulocyte counts relative to BAY 85-3934 treatment” value stood at 2 fold and the “time after treatment cessation at which reticulocyte counts returned to baseline” value turned out to be 8 days. In addition, in the data set on cynomolgus monkeys (14 days, rhEPO 100 IU/kg twice weekly s.c., BAY 85-3934 1.5 mg/kg once daily), the “mean gains of hemoglobin and red blood cells, both treatments compared” value is “almost completely congruent over time”. For the same compound, in the data set on cynomolgus monkeys (setting [4]), the “AUC of rhEPO relative to AUC of endogenous EPO” value is listed as “more than 6 fold” and the “plasma rhEPO concentration relative to endogenous EPO induced by BAY 85-3934” value is “more than 8 fold”.

Values taken from PMC4230943, “Mimicking Hypoxia to Treat Anemia: HIF-Stabilizer BAY 85-3934 (Molidustat) Stimulates Erythropoietin Production without Hypertensive Effects” (PLoS ONE, 2014).
